Measurements taken from patent US20240300959A1, “BALASUBRAMIDE DERIVATIVE AND USE THEREOF IN PREPARATION OF MEDICINE FOR TREATING ACUTE LUNG INJURY” (Guangdong Pharmaceutical University, priority 2023, published 2024).

Tested on: inflammation genes in RAW264.7 macrophages stimulated by lipopolysaccharide
Assay: qPCR expression level of inflammation genes in LPS-stimulated RAW264.7 macrophages
Type: cell-based, mice
Settings: RAW264.7, LPS
Method: RAW264.7 cells were inoculated into a 24-well plate at a density of 5×10^5 per well. When the cell density was 70%-80%, the RAW264.7 cells were pretreated with (+)3C-20 (5 μM, 10 μM, 20 μM). After 3 h, lipopolysaccharide (LPS, 100 ng/mL) was added into all wells for action for 2 h except for a control group. A supernatant was discarded, and the cells at the bottom of the plate were fully lysed with Trizol (Nanjing Vazyme, R401-01). RNA was extracted according to an RNA extraction instruction, and subjected to reverse transcription to obtain cDNA, followed by qPCR according to an amplification method at 95° C. for a total of 5 min (at 95° C. for 10 s, and at 60° C. for 30 s) in 40 cycles, and finally statistical calculation was performed by ΔCt.

SMILES: O=C(CCc1ccc(C(F)(F)F)cc1)O[C@@H]1C(=O)NCCc2c([nH]c3ccccc23)[C@H]1c1ccc(C(F)(F)F)cc1 [(+)-3C-20]
- Change multiple of COX-2 (5 μM): 4.20 ± 0.16
- Change multiple of IL-1β (5 μM): 62.02 ± 7.52
- Change multiple of IL-6 (5 μM): 23.17 ± 0.9
- Change multiple of TNF-α (5 μM): 11.03 ± 0.87
- Change multiple of COX-2 (10 μM): 3.95 ± 0.9
- Change multiple of IL-1β (10 μM): 28.51 ± 0.4
- Change multiple of IL-6 (10 μM): 16.09 ± 0.24
- Change multiple of TNF-α (10 μM): 6.00 ± 1.96
- Change multiple of COX-2 (20 μM): 3.49 ± 0.0^8
- Change multiple of IL-1β (20 μM): 12.58 ± 1.72
- Change multiple of IL-6 (20 μM): 6.53 ± 0.31
- Change multiple of TNF-α (20 μM): 4.49 ± 0.81
- effective dose for anti-inflammatory activity (inhibition of expression of inflammation genes): 5 μM, 10 μM or 20 μM
